Measurements taken from patent US11524961B2, “JAK kinase inhibitor and preparation method and use thereof” (Shanghai Longwood Biopharmaceuticals Co., Ltd., priority 2017, dated 2022).
Read-outs that look alike come from different tables or passages of the source.

How the values were obtained:
JAK2 = JAK2 (Homo sapiens (Human), UniProt O60674); assay: JAK2 enzyme activity inhibition (LANCE Ultra kinase assay)
JAK3 = JAK3 (Homo sapiens (Human), UniProt P52333); assay: JAK3 enzyme activity inhibition (LANCE Ultra kinase assay); conditions: read-out: JAK3 inhibitory activity IC50
Chain of JAK3 (P52333 whole entry): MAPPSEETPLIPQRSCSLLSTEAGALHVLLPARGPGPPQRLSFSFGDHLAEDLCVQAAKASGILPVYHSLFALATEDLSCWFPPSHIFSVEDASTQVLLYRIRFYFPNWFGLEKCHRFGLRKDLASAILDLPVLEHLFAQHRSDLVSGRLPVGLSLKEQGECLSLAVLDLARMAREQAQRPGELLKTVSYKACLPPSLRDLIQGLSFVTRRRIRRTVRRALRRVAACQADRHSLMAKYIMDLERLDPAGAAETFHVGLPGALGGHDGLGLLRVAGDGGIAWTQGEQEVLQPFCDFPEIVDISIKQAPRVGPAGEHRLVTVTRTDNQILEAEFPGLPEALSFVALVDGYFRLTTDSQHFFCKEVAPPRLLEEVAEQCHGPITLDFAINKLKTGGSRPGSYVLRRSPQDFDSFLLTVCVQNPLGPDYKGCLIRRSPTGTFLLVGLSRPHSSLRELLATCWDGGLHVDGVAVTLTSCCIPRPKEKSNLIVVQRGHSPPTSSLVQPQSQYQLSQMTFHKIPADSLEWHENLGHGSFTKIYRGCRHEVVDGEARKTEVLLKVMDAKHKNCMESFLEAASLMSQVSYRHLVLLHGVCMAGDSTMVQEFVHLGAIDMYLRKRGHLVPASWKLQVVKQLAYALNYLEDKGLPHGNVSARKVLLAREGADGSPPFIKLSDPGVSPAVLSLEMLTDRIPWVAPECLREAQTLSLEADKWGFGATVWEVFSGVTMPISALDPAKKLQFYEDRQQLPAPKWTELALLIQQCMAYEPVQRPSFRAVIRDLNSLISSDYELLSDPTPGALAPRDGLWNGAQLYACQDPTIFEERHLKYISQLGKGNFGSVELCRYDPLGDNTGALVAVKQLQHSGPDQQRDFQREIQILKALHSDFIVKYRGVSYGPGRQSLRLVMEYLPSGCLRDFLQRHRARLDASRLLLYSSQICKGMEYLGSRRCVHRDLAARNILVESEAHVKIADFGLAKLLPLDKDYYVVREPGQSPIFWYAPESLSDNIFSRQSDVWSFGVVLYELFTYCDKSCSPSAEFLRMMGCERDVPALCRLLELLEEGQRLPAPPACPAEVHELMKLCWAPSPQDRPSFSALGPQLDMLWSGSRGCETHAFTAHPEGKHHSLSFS

Chain of JAK2 (O60674 whole entry): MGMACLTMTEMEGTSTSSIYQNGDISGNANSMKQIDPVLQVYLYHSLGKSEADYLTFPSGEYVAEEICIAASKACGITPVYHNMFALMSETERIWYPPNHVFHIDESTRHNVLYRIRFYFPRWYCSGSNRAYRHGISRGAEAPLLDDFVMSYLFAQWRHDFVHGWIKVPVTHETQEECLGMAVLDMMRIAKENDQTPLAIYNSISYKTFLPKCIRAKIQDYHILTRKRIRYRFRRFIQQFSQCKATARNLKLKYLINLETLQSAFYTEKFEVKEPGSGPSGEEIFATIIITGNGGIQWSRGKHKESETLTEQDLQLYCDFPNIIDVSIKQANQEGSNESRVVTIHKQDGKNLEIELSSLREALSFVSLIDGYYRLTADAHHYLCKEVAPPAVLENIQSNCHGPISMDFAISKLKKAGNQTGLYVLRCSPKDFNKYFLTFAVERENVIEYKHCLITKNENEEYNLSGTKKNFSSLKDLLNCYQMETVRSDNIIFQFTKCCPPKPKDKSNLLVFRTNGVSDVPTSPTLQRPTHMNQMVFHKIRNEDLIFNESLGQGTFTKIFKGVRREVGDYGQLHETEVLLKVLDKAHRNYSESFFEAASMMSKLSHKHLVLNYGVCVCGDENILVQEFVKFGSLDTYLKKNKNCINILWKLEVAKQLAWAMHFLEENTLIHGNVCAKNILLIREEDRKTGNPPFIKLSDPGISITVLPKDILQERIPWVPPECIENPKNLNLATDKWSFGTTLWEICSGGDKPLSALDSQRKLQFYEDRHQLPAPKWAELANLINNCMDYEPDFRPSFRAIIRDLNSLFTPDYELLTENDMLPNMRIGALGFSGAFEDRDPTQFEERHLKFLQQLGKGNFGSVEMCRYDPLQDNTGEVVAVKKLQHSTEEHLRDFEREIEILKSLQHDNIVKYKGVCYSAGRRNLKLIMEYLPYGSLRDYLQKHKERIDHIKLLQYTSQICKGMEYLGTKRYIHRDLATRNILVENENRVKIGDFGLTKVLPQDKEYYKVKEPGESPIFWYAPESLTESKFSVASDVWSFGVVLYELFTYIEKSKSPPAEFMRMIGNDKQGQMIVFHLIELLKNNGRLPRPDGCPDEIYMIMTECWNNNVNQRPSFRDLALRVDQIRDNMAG

Q: What does the source list for `CCS(=N)(=O)N1CC(CC#N)(n2cc(-c3ncnc4[nH]ccc34)cn2)C1` (single isomer, unassigned) [LW104-J]?
A: IC50 (JAK2): 0.1 to 10 nM; IC50 (JAK3): 116 nM

Q: What does the source list for `CCS(=N)(=O)N1CC(CC#N)(n2cc(-c3ncnc4[nH]ccc34)cn2)C1` (single isomer, unassigned) [LW104-K]?
A: IC50 (JAK2; read-out: JAK2 inhibitory activity IC50, class symbols): 0.1 to 10 nM; IC50 (JAK3): 69.3 nM

Q: With `CC(N=[S@@](C)(=O)N1CC(CC#N)(n2cc(-c3ncnc4[nH]ccc34)cn2)C1)c1ccccc1` (stereo in doubt) [LW104-G] as the compound, how does the IC50 (JAK2) read?
A: 10 to 100 nM

Q: For `CS(=N)(=O)N1CC(CC#N)(n2cc(-c3ncnc4[nH]ccc34)cn2)C1` (centres unmarked) [LW104-A], which IC50 (JAK2) is on record?
A: 0.1 to 10 nM

Q: What about the IC50 (JAK3) of the same compound?
A: 98.3 nM

Q: Which results are given for `CCS(=N)(=O)N1CC(CC#N)(n2cc(-c3ncnc4[nH]ccc34)cn2)C1` (centres unmarked) [LW104-B]?
A: IC50 (JAK2): 0.1 to 10 nM; IC50 (JAK3): 136 nM

Q: With `N#CCC1(n2cc(-c3ncnc4[nH]ccc34)cn2)CN(S(=N)(=O)c2ccccc2)C1` (centres unmarked) [LW104-C] as the compound, how does the IC50 (JAK2) read?
A: 10 to 100 nM

Q: What about the IC50 (JAK3) of the same compound?
A: 427 nM

Q: How did the IC50 (JAK3) turn out when `CC(C)S(=N)(=O)N1CC(CC#N)(n2cc(-c3ncnc4[nH]ccc34)cn2)C1` (centres unmarked) [LW104-D] was run?
A: 190 nM

Q: `N#CCC1(n2cc(-c3ncnc4[nH]ccc34)cn2)CN(S(=N)(=O)C2CC2)C1` (centres unmarked) [LW104-E] was tested. Which IC50 (JAK2) did it give?
A: 0.1 to 10 nM

Q: And the IC50 (JAK3)?
A: 187 nM

Q: Which IC50 (JAK2) does the source give for `CN=S(C)(=O)N1CC(CC#N)(n2cc(-c3ncnc4[nH]ccc34)cn2)C1` (centres unmarked) [LW104-F] here?
A: 0.1 to 10 nM

Q: What about the IC50 (JAK3) of the same compound?
A: 145 nM

Q: With `CC(C)N=S(C)(=O)N1CC(CC#N)(n2cc(-c3ncnc4[nH]ccc34)cn2)C1` (centres unmarked) [LW104-I] as the compound, how does the IC50 (JAK2) read?
A: 10 to 100 nM

Q: What about the IC50 (JAK3) of the same compound?
A: 649 nM

Q: Which results are given for `CN=S(=O)(C1CC1)N1CC(CC#N)(n2cc(-c3ncnc4[nH]ccc34)cn2)C1` (centres unmarked) [LW104-L]?
A: IC50 (JAK2): 0.1 to 10 nM; IC50 (JAK3): 158 nM

Q: For `CCN=S(=O)(C1CC1)N1CC(CC#N)(n2cc(-c3ncnc4[nH]ccc34)cn2)C1` (centres unmarked) [LW104-M], which IC50 (JAK3) is on record?
A: 194 nM

Q: Which results are given for `N#CCC1(n2cc(-c3ncnc4[nH]ccc34)cn2)CN(S(=O)(=NC2CC2)C2CC2)C1` (centres unmarked) [LW104-N]?
A: IC50 (JAK2): 0.1 to 10 nM; IC50 (JAK3): 203 nM

Q: How did the IC50 (JAK3) turn out when `CCS(=O)(=NC1CC1)N1CC(CC#N)(n2cc(-c3ncnc4[nH]ccc34)cn2)C1` (centres unmarked) [LW104-O] was run?
A: 294 nM

Q: How did the IC50 (JAK2) turn out when `CCS(=O)(=NC)N1CC(CC#N)(n2cc(-c3ncnc4[nH]ccc34)cn2)C1` (centres unmarked) [LW104-P] was run?
A: 10 to 100 nM

Q: What about the IC50 (JAK3) of the same compound?
A: 216 nM
